The source made the active and inactive calls.
Assays:
Mus musculus [1] = assay: Neurotoxicity in mouse at 10 mg/kg, ip after 0.5 hrs by rotarod test; type: toxicity, organism-based; parameters: dose 10 mg/kg, route intraperitoneal; settings: in vivo
Mus musculus [2] = assay: Neurotoxicity in mouse at 10 mg/kg, ip after 4 hrs by rotarod test; type: toxicity, organism-based; parameters: dose 10 mg/kg, route intraperitoneal; settings: in vivo
Mus musculus [3] = assay: Neurotoxicity in mouse at 30 mg/kg, ip after 0.5 hrs by rotarod test; type: toxicity, organism-based; parameters: dose 30 mg/kg, route intraperitoneal; settings: in vivo
Mus musculus [4] = assay: Neurotoxicity in mouse at 30 mg/kg, ip after 4 hrs by rotarod test; type: toxicity, organism-based; parameters: dose 30 mg/kg, route intraperitoneal; settings: in vivo
Mus musculus [5] = assay: Neurotoxicity in mouse at 100 mg/kg, ip after 4 hrs by rotarod test; type: toxicity, organism-based; parameters: dose 100 mg/kg, route intraperitoneal; settings: in vivo
Mus musculus [6] = assay: Neurotoxicity in mouse at 300 mg/kg, ip after 0.5 hrs by rotarod test; type: toxicity, organism-based; parameters: dose 300 mg/kg, route intraperitoneal; settings: in vivo
Rattus norvegicus [7] = assay: Anticonvulsant activity against maximal electroshock-induced seizures in rat at 30 mg/kg, po after 0.5 hrs; type: functional, organism-based; parameters: dose 30 mg/kg
Rattus norvegicus [8] = assay: Anticonvulsant activity against maximal electroshock-induced seizures in rat at 30 mg/kg, po after 1 hr; type: functional, organism-based; parameters: dose 30 mg/kg
Rattus norvegicus [9] = assay: Anticonvulsant activity against maximal electroshock-induced seizures in rat at 30 mg/kg, po after 2 hrs; type: functional, organism-based; parameters: dose 30 mg/kg
Rattus norvegicus [10] = assay: Anticonvulsant activity against maximal electroshock-induced seizures in rat at 30 mg/kg, po after 4 hrs; type: functional, organism-based; parameters: dose 30 mg/kg
Rattus norvegicus [11] = assay: Neurotoxicity in rat at 30 mg/kg, po after 0.25 hrs by rotarod test; type: toxicity, organism-based; parameters: dose 30 mg/kg, route oral; settings: in vivo
Rattus norvegicus [12] = assay: Neurotoxicity in rat at 30 mg/kg, po after 0.5 hrs by rotarod test; type: toxicity, organism-based; parameters: dose 30 mg/kg, route oral; settings: in vivo
Rattus norvegicus [13] = assay: Neurotoxicity in rat at 30 mg/kg, po after 1 hr by rotarod test; type: toxicity, organism-based; parameters: dose 30 mg/kg, route oral; settings: in vivo
Rattus norvegicus [14] = assay: Neurotoxicity in rat at 30 mg/kg, po after 2 hrs by rotarod test; type: toxicity, organism-based; parameters: dose 30 mg/kg, route oral; settings: in vivo
Rattus norvegicus [15] = assay: Neurotoxicity in rat at 30 mg/kg, po after 4 hrs by rotarod test; type: toxicity, organism-based; parameters: dose 30 mg/kg, route oral; settings: in vivo
Mus musculus [16] = assay: Neurotoxicity in mouse at 3 mg/kg, ip after 0.5 hrs by rotarod test; type: toxicity, organism-based; parameters: dose 3 mg/kg, route intraperitoneal; settings: in vivo
Mus musculus [17] = assay: Anticonvulsant activity against maximal electroshock-induced seizures in mouse at 3 mg/kg, ip after 0.5 hrs; type: functional, organism-based; parameters: dose 3 mg/kg
Mus musculus [18] = assay: Anticonvulsant activity against maximal electroshock-induced seizures in mouse at 10 mg/kg, ip after 0.5 hrs; type: functional, organism-based; parameters: dose 10 mg/kg
Mus musculus [19] = assay: Anticonvulsant activity against maximal electroshock-induced seizures in mouse at 10 mg/kg, ip after 4 hrs; type: functional, organism-based; parameters: dose 10 mg/kg
Mus musculus [20] = assay: Anticonvulsant activity against maximal electroshock-induced seizures in mouse at 30 mg/kg, ip after 0.5 hrs; type: functional, organism-based; parameters: dose 30 mg/kg
Mus musculus [21] = assay: Anticonvulsant activity against maximal electroshock-induced seizures in mouse at 30 mg/kg, ip after 4 hrs; type: functional, organism-based; parameters: dose 30 mg/kg
Mus musculus [22] = assay: Anticonvulsant activity against maximal electroshock-induced seizures in mouse at 100 mg/kg, ip after 0.5 hrs; type: functional, organism-based; parameters: dose 100 mg/kg
Mus musculus [23] = assay: Anticonvulsant activity against scMet-induced seizures in mouse at 10 mg/kg, ip after 0.5 hrs; type: functional, organism-based; parameters: dose 10 mg/kg
Mus musculus [24] = assay: Anticonvulsant activity against scMet-induced seizures in mouse at 100 mg/kg, ip after 4 hrs; type: functional, organism-based; parameters: dose 100 mg/kg
Mus musculus [25] = assay: Anticonvulsant activity against scMet-induced seizures in mouse at 10 mg/kg, ip after 4 hrs; type: functional, organism-based; parameters: dose 10 mg/kg
Mus musculus [26] = assay: Anticonvulsant activity against scMet-induced seizures in mouse at 30 mg/kg, ip after 0.5 hrs; type: functional, organism-based; parameters: dose 30 mg/kg
Mus musculus [27] = assay: Anticonvulsant activity against scMet-induced seizures in mouse at 30 mg/kg, ip after 4 hrs; type: functional, organism-based; parameters: dose 30 mg/kg
Mus musculus [28] = assay: Anticonvulsant activity against scMet-induced seizures in mouse at 100 mg/kg, ip after 0.5 hrs; type: functional, organism-based; parameters: dose 100 mg/kg
Mus musculus [29] = assay: Neurotoxicity in mouse at 100 mg/kg, ip after 0.25 hrs by rotarod test; type: toxicity, organism-based; parameters: dose 100 mg/kg, route intraperitoneal; settings: in vivo
Mus musculus [30] = assay: Neurotoxicity in mouse at 300 mg/kg, ip after 4 hrs by rotarod test; type: toxicity, organism-based; parameters: dose 300 mg/kg, route intraperitoneal; settings: in vivo
Mus musculus [31] = assay: Anticonvulsant activity against maximal electroshock-induced seizures in mouse at 100 mg/kg, ip after 1 hr; type: functional, organism-based; parameters: dose 100 mg/kg
Mus musculus [32] = assay: Anticonvulsant activity against maximal electroshock-induced seizures in mouse at 300 mg/kg, ip after 0.5 hrs; type: functional, organism-based; parameters: dose 300 mg/kg
Mus musculus [33] = assay: Anticonvulsant activity against maximal electroshock-induced seizures in mouse at 300 mg/kg, ip after 4 hrs; type: functional, organism-based; parameters: dose 300 mg/kg
Mus musculus [34] = assay: Anticonvulsant activity against scMet-induced seizures in mouse at 300 mg/kg, ip after 0.5 hrs; type: functional, organism-based; parameters: dose 300 mg/kg
Mus musculus [35] = assay: Anticonvulsant activity against scMet-induced seizures in mouse at 300 mg/kg, ip after 4 hrs; type: functional, organism-based; parameters: dose 300 mg/kg

CCN(CCO)Cc1ccc2oc3cc(Cl)ccc3c(=O)c2c1
active: Activity (Mus musculus [18]) | Activity (Mus musculus [22])
Neurotoxic: Neurotoxicity (Mus musculus [5]) | Neurotoxicity (Mus musculus [6])
inactive: Activity (Rattus norvegicus [7]) | Activity (Rattus norvegicus [8]) | Activity (Rattus norvegicus [9]) | Activity (Rattus norvegicus [10]) | Activity (Mus musculus [17]) | Activity (Mus musculus [19]) | Activity (Mus musculus [20]) | Activity (Mus musculus [21]) | Activity (Mus musculus [23]) | Activity (Mus musculus [24]) | Activity (Mus musculus [25]) | Activity (Mus musculus [26]) | Activity (Mus musculus [27]) | Activity (Mus musculus [28])
Not Active: Neurotoxicity (Mus musculus [1]) | Neurotoxicity (Mus musculus [2]) | Neurotoxicity (Mus musculus [3]) | Neurotoxicity (Mus musculus [4]) | Neurotoxicity (Rattus norvegicus [11]) | Neurotoxicity (Rattus norvegicus [12]) | Neurotoxicity (Rattus norvegicus [13]) | Neurotoxicity (Rattus norvegicus [14]) | Neurotoxicity (Rattus norvegicus [15]) | Neurotoxicity (Mus musculus [16])

C[C@@H](CCl)NCc1ccc2oc3cc(Cl)ccc3c(=O)c2c1.Cl
inactive: Activity (Mus musculus [20]) | Activity (Mus musculus [21]) | Activity (Mus musculus [22]) | Activity (Mus musculus [31]) | Activity (Mus musculus [24]) | Activity (Mus musculus [26]) | Activity (Mus musculus [27]) | Activity (Mus musculus [28]) | Activity (Mus musculus [34]) | Activity (Mus musculus [35])
active: Activity (Mus musculus [32]) | Activity (Mus musculus [33])
Not Active: Neurotoxicity (Mus musculus [4]) | Neurotoxicity (Mus musculus [29]) | Neurotoxicity (Mus musculus [5]) | Neurotoxicity (Mus musculus [30])

— ChEMBL document CHEMBL1155915, “Anticonvulsant activity of some xanthone derivatives” (Bioorg Med Chem, 2008)
